From patent US11780826B2 (Amgen Inc., priority 2017, dated 2023) come the findings set out here.

The test system of this experiment is Bovine cardiac myofibrils. Description: In vitro model of dose-dependent myofibril ATPase modulation (AC1.4, pyruvate kinase/lactate dehydrogenase-coupled ATPase assay at pCa25). It counts as biochemical. The settings on record: concentration at which ATPase activity was 1.4-fold higher than the bottom of the dose curve, mean of a minimum of two independent tests. The essentials: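 Compound dilutions were premixed with myofibrils, coupling enzymes, EGTA and CaCl2, then the reaction was started with an equal volume carrying ATP (final 1 mM), NADH and PEP. ATP turnover was followed at 340 nm, and dose responses were fit to a four-parameter equation.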

`O=C(N[C@@H](c1cc(F)c(Cl)cc1F)C1CC1)[C@H]1C[C@H]2C[C@H]2N1C(=O)c1cccc(C(F)(F)F)c1` [Example 127, (1R,3R,5R)-N-((R)-(4-chloro-2,5-difluorophenyl)(cyclopropyl)methyl)-2-(3-(trifluoromethyl)benzoyl)-2-azabicyclo[3.1.0]hexane-3-carboxamide]: the AC1.4 came out at 0.2088 µM.

`CCS(=O)(=O)c1cccc(C(=O)N2[C@@H](C(=O)N[C@@H](c3ccc(C(F)(F)F)cc3F)C3COC3)C[C@H]3C[C@H]32)c1` [Example 128, (1R,3R,5R)-2-(3-(ethylsulfonyl)benzoyl)-N-((R)-(2-fluoro-4-(trifluoromethyl)phenyl)(3-oxetanyl)methyl)-2-azabicyclo[3.1.0]hexane-3-carboxamide] returned an AC1.4 of 0.2103 µM.

As to `CS(=O)(=O)c1cccc(C(=O)N2CSC[C@@H]2C(=O)N[C@@H](c2ccc(C(F)(F)F)cc2F)C2CC2)c1` [Example 129, (4S)-N-((R)-cyclopropyl(2-fluoro-4-(trifluoromethyl)phenyl)methyl)-3-(3-(methylsulfonyl)benzoyl)-1,3-thiazolidine-4-carboxamide], the AC1.4 amounted to 0.2119 µM.

For `Cc1ccc(CNC(=O)[C@H]2CCCN2C(=O)[C@H]2CCCN(S(=O)(=O)N3CC(C#N)C3)C2)cc1Cl` [Example 130, N-(3-chloro-4-methylbenzyl)-1-(((3S)-1-((3-cyano-1-azetidinyl)sulfonyl)-3-piperidinyl)carbonyl)-D-prolinamide], the AC1.4 was found to be 0.214 µM.

On to `N#CC1CN(S(=O)(=O)c2cccc(C(=O)N3CCC[C@@H]3C(=O)NCc3ccc(C(F)(F)F)nc3)c2)C1` [Example 131, 1-((3-((3-cyano-1-azetidinyl)sulfonyl)phenyl)carbonyl)-N-((6-(trifluoromethyl)-3-pyridinyl)methyl)-D-prolinamide], for which the AC1.4 came out at 0.2158 µM.

As to `N#CC1CN(S(=O)(=O)N2CCC[C@H](C(=O)N3CCC[C@@H]3C(=O)NC(c3ccc(Cl)cc3)C3CCCO3)C2)C1` (stereo partly drawn) [Example 132, N-(-(4-chlorophenyl)(-tetrahydro-2-furanyl)methyl)-1-(((3S)-1-((3-cyano-1-azetidinyl)sulfonyl)-3-piperidinyl)carbonyl)-D-prolinamide], the AC1.4 was determined as 0.2176 µM.

As for `CCS(=O)(=O)c1ccnc(C(=O)N2[C@@H](C(=O)N[C@@H](c3cc(F)c(Cl)cc3F)C3CC3)C[C@H]3C[C@H]32)c1` [Example 133, (1R,3R,5R)-N-((R)-(4-chloro-2,5-difluorophenyl)(cyclopropyl)methyl)-2-((4-(ethylsulfonyl)-2-pyridinyl)carbonyl)-2-azabicyclo[3.1.0]hexane-3-carboxamide], the AC1.4 worked out at 0.2186 µM.

Turning to `N#CC1CN(S(=O)(=O)N2CCC[C@H](C(=O)N3CCC[C@@H]3C(=O)NC(CO)c3ccc(C(F)(F)F)cc3)C2)C1` (stereo partly drawn) [Example 134, 1-(((3S)-1-((3-cyano-1-azetidinyl)sulfonyl)-piperidinyl)carbonyl)-N-(-2-hydroxy-1-(4-(trifluoromethyl)phenyl)ethyl)-D-prolinamide], the AC1.4 came out at 0.2198 µM.

`N#CC1CN(S(=O)(=O)c2cccc(C(=O)N3CCC[C@@H]3C(=O)NCc3cnc(C(F)(F)F)nc3)c2)C1` [Example 136, 1-((3-((3-cyano-1-azetidinyl)sulfonyl)phenyl)carbonyl)-N-((2-(trifluoromethyl)-5-pyrimidinyl)methyl)-D-prolinamide] came in with an AC1.4 of 0.2235 µM.

In turn, `Cc1cc(CNC(=O)[C@H]2CCCN2C(=O)[C@H]2CCCN(S(=O)(=O)N3CC(C#N)C3)C2)ccc1Cl` [Example 137, N-(4-chloro-3-methylbenzyl)-1-(((3S)-1-((3-cyano-1-azetidinyl)sulfonyl)-3-piperidinyl)carbonyl)-D-prolinamide] had an AC1.4 of 0.2267 µM.

For the compound `O=C(N[C@@H](c1cc(F)c(Cl)cc1F)C1CC1)[C@H]1C[C@H]2C[C@H]2N1C(=O)c1cc(S(=O)(=O)C2CC2)ccn1` [Example 138, (1R,3R,5R)-N-((R)-(4-chloro-2,5-difluorophenyl)(cyclopropyl)methyl)-2-((4-(cyclopropylsulfonyl)-2-pyridinyl)carbonyl)-2-azabicyclo[3.1.0]hexane-3-carboxamide], the AC1.4 was determined as 0.2306 µM.

Regarding `NS(=O)(=O)c1cccc(C(=O)N2[C@@H](C(=O)N[C@@H](c3cc(F)c(Cl)cc3F)C3CC3)C[C@H]3C[C@H]32)c1` [Example 139, (1R,3R,5R)-N-((R)-(4-chloro-2,5-difluorophenyl)(cyclopropyl)methyl)-2-(3-sulfamoylbenzoyl)-2-azabicyclo[3.1.0]hexane-3-carboxamide], the AC1.4 stood at 0.232 µM.

Consider `Cc1cc(C(=O)N2[C@@H](C(=O)N[C@@H](c3cc(F)c(Cl)cc3F)C3COC3)C[C@H]3C[C@H]32)cc(S(C)(=O)=O)c1` [Example 140, (1R,3R,5R)-N-((R)-(4-chloro-2,5-difluorophenyl)(3-oxetanyl)methyl)-2-(3-methyl-5-(methylsulfonyl)benzoyl)-2-azabicyclo[3.1.0]hexane-3-carboxamide], for which the AC1.4 turned out to be 0.2351 µM.

`CS(=O)(=O)c1cccc(C(=O)N2C[C@@H](F)C[C@@H]2C(=O)N[C@@H](c2cc(F)c(Cl)cc2F)C2COC2)c1` [Example 141, (4S)-N-((R)-(4-chloro-2,5-difluorophenyl)(3-oxetanyl)methyl)-4-fluoro-1-(3-(methylsulfonyl)benzoyl)-D-prolinamide]: the AC1.4 is 0.2366 µM.

With `N#CC1CN(S(=O)(=O)c2cc(C(=O)N3CCC[C@@H]3C(=O)NCc3ccc(C(F)(F)F)cc3F)ccn2)C1` [Example 142, 1-((2-((3-cyano-1-azetidinyl)sulfonyl)-4-pyridinyl)carbonyl)-N-(2-fluoro-4-(trifluoromethyl)benzyl)-D-prolinamide], the AC1.4 was 0.2421 µM.

`N#CC1CN(S(=O)(=O)N2CCC(F)(F)[C@H](C(=O)N3CCC[C@@H]3C(=O)NCc3ccc(C(F)(F)F)cc3)C2)C1` [Example 143, 1-(((3S)-1-((3-cyano-1-azetidinyl)sulfonyl)-4,4-difluoro-3-piperidinyl)carbonyl)-N-(4-(trifluoromethyl)benzyl)-D-prolinamide]: the AC1.4 stood at 0.244 µM.

Take `C[C@@H](NC(=O)[C@H]1CCCN1C(=O)[C@@H]1CN(S(=O)(=O)N2CC(C#N)C2)CCN1)c1ccc(C(F)(F)F)cc1F` [Example 144, 1-(((2S)-4-((3-cyano-1-azetidinyl)sulfonyl)-2-piperazinyl)carbonyl)-N-((1R)-1-(2-fluoro-4-(trifluoromethyl)phenyl)ethyl)-D-prolinamide]: the AC1.4 amounted to 0.2462 µM.

The compound `Cc1c(CNC(=O)[C@H]2CCCN2C(=O)[C@H]2CCCN(S(=O)(=O)N3CC(C#N)C3)C2)cccc1C(F)(F)F` [Example 145, 1-(((3S)-1-((3-cyano-1-azetidinyl)sulfonyl)-3-piperidinyl)carbonyl)-N-(2-methyl-3-(trifluoromethyl)benzyl)-D-prolinamide] gave an AC1.4 of 0.2465 µM.

`CC[C@@H](NC(=O)[C@H]1CCCN1C(=O)c1cccc(S(=O)(=O)N(C)C)c1)c1ccc(C(F)(F)F)cc1F` [Example 146, 1-(3-(dimethylsulfamoyl)benzoyl)-N-((1R)-1-(2-fluoro-4-(trifluoromethyl)phenyl)propyl)-D-prolinamide] gave an AC1.4 of 0.2474 µM.

The compound `CNc1ccc(S(C)(=O)=O)cc1C(=O)N1[C@@H](C(=O)N[C@@H](c2ccc(C(F)(F)F)cc2F)C2CC2)C[C@H]2C[C@H]21` [Example 148, (1R,3R,5R)-N-((R)-cyclopropyl(2-fluoro-4-(trifluoromethyl)phenyl)methyl)-2-(2-(methylamino)-5-(methylsulfonyl)benzoyl)-2-azabicyclo[3.1.0]hexane-3-carboxamide] came in with an AC1.4 of 0.2569 µM.

`N#CC1CN(S(=O)(=O)N2CCO[C@H](C(=O)N3CCC[C@@H]3C(=O)NCc3ccc(C(F)(F)F)cc3)C2)C1` [Example 149, 1-(((2S)-4-((3-cyano-1-azetidinyl)sulfonyl)-2-morpholinyl)carbonyl)-N-(4-(trifluoromethyl)benzyl)-D-prolinamide]: the AC1.4 was found to be 0.2589 µM.

Consider `C[C@@H](NC(=O)[C@H]1CCCN1C(=O)[C@H]1CCCN(S(=O)(=O)N2CC(S(C)(=O)=O)C2)C1)c1ccc(Cl)cc1` [Example 150, N-((1R)-1-(4-chlorophenyl)ethyl)-1-(((3S)-1-((3-(methylsulfonyl)-1-azetidinyl)sulfonyl)-3-piperidinyl)carbonyl)-D-prolinamide], for which the AC1.4 was 0.2589 µM.

Turning to `O=C(NCc1ccc(C(F)(F)F)cc1F)[C@H]1CCCN1C(=O)[C@H]1CCCN(S(=O)(=O)N2CC(n3ccnn3)C2)C1` [Example 151, N-(2-fluoro-4-(trifluoromethyl)benzyl)-1-(((3S)-1-((3-(1H-l,2,3-triazol-1-yl)-1-azetidinyl)sulfonyl)-3-piperidinyl)carbonyl)-D-prolinamide], the AC1.4 stood at 0.2616 µM.

With `Cc1c(Cl)cccc1CNC(=O)[C@H]1CCCN1C(=O)[C@H]1CCCN(S(=O)(=O)N2CC(C#N)C2)C1` [Example 152, N-(3-chloro-2-methylbenzyl)-1-(((3S)-1-((3-cyano-1-azetidinyl)sulfonyl)-3-piperidinyl)carbonyl)-D-prolinamide], the AC1.4 came out at 0.2624 µM.

`N#CC1CN(S(=O)(=O)N2CCC[C@H](C(=O)N3CCC[C@@H]3C(=O)NCc3cc(F)c(F)c(F)c3)C2)C1` [Example 153, 1-(((3S)-1-((3-cyano-1-azetidinyl)sulfonyl)-3-piperidinyl)carbonyl)-N-(3,4,5-trifluorobenzyl)-D-prolinamide]: the AC1.4 amounted to 0.2697 µM.

In turn, `CS(=O)(=O)c1ccc(NCCO)c(C(=O)N2CCC[C@@H]2C(=O)N[C@@H](c2ccc(C(F)(F)F)cc2F)C2CC2)c1` [Example 154, N-((R)-cyclopropyl(2-fluoro-4-(trifluoromethyl)phenyl)methyl)-1-(2-((2-hydroxyethyl)amino)-5-(methylsulfonyl)benzoyl)-D-prolinamide] had an AC1.4 of 0.2715 µM.
